# Data taken from patent US20240366644A1, “ANTI-INFLAMMATORY APPLICATION OF GINSENOSIDE RD” (priority 2022, published 2024).
# Columns and labels:
# [1] = tested on: xylene-induced swelling of mouse ears; test: Xylene-induced swelling of mouse ears; assay type: in vivo, Kunming mice; settings: for Ear mass difference / Swelling degree: 4 h after xylene
# Description: […] KM mice, weighing 18-22 g, were randomly grouped, with ten mice in each group. The groups include a model group, a positive control group (Indomethacin, 10 mg/kg), a ginsenoside Rd low-dose group (5 mg/kg), and a ginsenoside Rd high-dose group (10 mg/kg). After 30 min of gavage administration of mice (the model group was administrated with the equal volume of 0.5% sodium carboxymethylcellulose by gavage), 0.03 ml of xylene was evenly applied to both sides of the right ear of each mouse in each group to cause inflammations on both sides, and the left ear of the mouse was not applied as a control. After 4 h, the mouse was killed by dislocation of cervical vertebra, the two ears of the mouse were cut off along the auricle, round ear slices of the same size (a diameter of 6 mm) were taken at the same position of the left and right ears and weighed respectively, a mass difference of the two ear slices was used as an ear swelling degree, and a swelling inhibition rate was calculated.
# [2] = tested on: mice infected with COVID-19 Delta virus; test: Lung histopathology of mice infected with COVID-19 Delta virus; assay type: in vivo, hACE2 transgenic C57BL/6 mice; settings: for Interstitial pneumonia Mild / Interstitial pneumonia Moderate / Interstitial pneumonia Severe / Pulmonary hemorrhage Mild / Pulmonary hemorrhage Moderate / Pulmonary hemorrhage Severe: number of mice with this degree (four per group), five days
# [3] = tested on: COVID-19 Delta virus-infected mice; test: IL-1β and MCP-1 expression (RT-qPCR) in lung homogenates of COVID-19 Delta virus-infected mice; assay type: in vivo, hACE2 transgenic C57BL/6 mice; settings: for IL-1β expression level in lung homogenate / MCP-1 expression level in lung homogenate: mRNA, blank group 1.00, Day 5 of infection
# [4] = tested on: Chronic Obstructive Pulmonary Disease in Rats; test: Serum TNF-α and IL-8 in rats with chronic obstructive pulmonary disease (LPS + smoking); assay type: in vivo, SD rats
# Description: After adaptive feeding (20-25° C., a humidity of 50-60%) for 1 week, the rats were randomly divided into a blank group, a model group, a positive control group, a ginsenoside Rd high-dose group, and a ginsenoside Rd low-dose group, with ten rats in each group.
# Model group: on the Day 1 and Day 14, each rat was intraperitoneally injected with 10% chloral hydrate (300 mg/kg) for anesthesia; the head was fixed in a low position; the glottis was exposed; lipopolysaccharide was quickly injected into the trachea; and the rat was kept upright, and swung left and right for 10-20 s, such that the lipopolysaccharide was evenly distributed in the two lungs. On the Days 2-13, and 15-28, the lungs were smoked in a closed organic glass box for 30 min every day, with 15 cigarettes per day.
# Positive control group: the animal was anesthetized, and intratracheally injected with lipopolysaccharide, wherein smoking conditions and time were the same as those of the model group; and after tracheal injection of lipopolysaccharide for two weeks, the animal was administrated with Simvastatin by gavage (2.5 mg/kg), and killed after six weeks, and serum was collected.
# In accordance with the instructions, the levels of TNF-α and IL-8 in the serum were detected by enzyme-linked immunosorbent assay. The data was expressed as x±s, p<0.05, which meant that it was statistically significant.
# [5] = tested on: Chronic Obstructive Pulmonary Disease in Rats; test: Lung pathomorphology of rats with chronic obstructive pulmonary disease; assay type: in vivo, SD rats
# [6] = tested on: mice with chronic bronchial asthma; test: Serum IL-4 and INF-γ in OVA-sensitised mice with chronic bronchial asthma; assay type: in vivo, BALB/c mice; settings: for IL-4 in serum / INF-γ in serum: seven days, 24 h after the last excitation
# Description: After adaptive feeding (20-25° C., a humidity of 50-60%) for one week, the mice were randomly divided into a blank group, a model group, a ginsenoside Rd high-dose group, and a ginsenoside Rd low-dose group, with ten […] in each group.
# Except for the blank group, the mice in the other groups were intraperitoneally injected with 0.2 ml of sensitization solution (containing 50 μg of OVA) on the Day 1, Day 8 and Day 15, respectively. Starting on Day 22, the mice in each group were placed in a nebulizer and inhaled with 2% OVA for exciting asthma. This inhalation was performed once a day, 45 min each time, for seven consecutive days.
# Administration by gavage was performed 30 min before each asthma stimulation, once a day for seven consecutive days. The blank group and the model group were administrated with normal saline by gavage, the high-dose group was administrated with 10 mg/kg ginsenoside Rd by gavage, and the low-dose group was administrated with 5 mg/kg ginsenoside Rd by gavage.
# 24 h after the last excitation, the mice were sampled, blood was collected from the eyeballs and separated to obtain serum, and IL-4 and INF-γ in the serum were detected.
# [7] = 5 mg/kg gavage 30 min before xylene
# [8] = 10 mg/kg gavage 30 min before xylene
# [9] = high-dose 20 mg/kg gavage once a day
# [10] = low-dose 10 mg/kg gavage once a day
# [11] = high-dose 10 mg/kg gavage once a day
# [12] = low-dose 5 mg/kg gavage once a day
compound,measurement,setting,value
"CC(C)=CCC[C@](C)(O[C@@H]1O[C@H](CO)[C@@H](O)[C@H](O)[C@H]1O)[C@H]1CC[C@]2(C)[C@@H]1[C@H](O)C[C@@H]1[C@@]3(C)CC[C@H](O[C@@H]4O[C@H](CO)[C@@H](O)[C@H](O)[C@H]4O[C@@H]4O[C@H](CO)[C@@H](O)[C@H](O)[C@H]4O)C(C)(C)[C@@H]3CC[C@]12C [Ginsenoside Rd, ginsenoside Rd]",Ear mass difference,[1]; [7],11.84 ± 1.02 mg
same,Swelling degree,[1]; [7],7.56 ± 2.05 (mg) (%)
same,ear swelling inhibition rate compared with Indomethacin,[1]; 10 mg/kg,close to that of Indomethacin
same,Ear mass difference,[1]; [8],7.68 ± 0.39 mg
same,Swelling degree,[1]; [8],6.59 ± 1.96 (mg) (%)
same,inhibition at 5 mg/kg,"[1]; Mus musculus, po, ear swelling, 5 mg/kg gavage, read-out: Inhibition rate",30.3%
same,inhibition at 10 mg/kg,"[1]; Mus musculus, po, ear swelling, 10 mg/kg gavage, read-out: Inhibition rate",39.3%
same,ear swelling of mice caused by xylene,[1]; compared with the model group,significantly inhibit ear swelling
same,lung lesions caused by COVID-19 Delta virus,"[2]; 10 mg/kg and 20 mg/kg, compared with virus group",good improvement effects on lung lesions
same,pathological improvement of pulmonary hemorrhage and interstitial pneumonia compared with Dexamethasone,[2]; high-dose group 20 mg/kg,better than Dexamethasone
same,Interstitial pneumonia Mild,[2]; [9],4
same,Interstitial pneumonia Moderate,[2]; [9],0
same,Interstitial pneumonia Severe,[2]; [9],0
same,Pulmonary hemorrhage Mild,[2]; [9],4
same,Pulmonary hemorrhage Moderate,[2]; [9],0
same,Pulmonary hemorrhage Severe,[2]; [9],0
same,Interstitial pneumonia Mild,[2]; [10],2
same,Interstitial pneumonia Moderate,[2]; [10],2
same,Interstitial pneumonia Severe,[2]; [10],0
same,Pulmonary hemorrhage Mild,[2]; [10],2
same,Pulmonary hemorrhage Moderate,[2]; [10],2
same,Pulmonary hemorrhage Severe,[2]; [10],0
same,IL-1β and MCP-1 inflammatory factors,[3]; compared with the virus model group,significantly reduced
same,IL-1β expression level in lung homogenate,[3]; 10 mg/kg gavage,20.88 ± 6.42
same,MCP-1 expression level in lung homogenate,[3]; 10 mg/kg gavage,18.71 ± 13.75
same,IL-1β expression level in lung homogenate,[3]; 20 mg/kg gavage,10.13 ± 6.68
same,MCP-1 expression level in lung homogenate,[3]; 20 mg/kg gavage,7.15 ± 9.36
same,IL-8 in serum,[4]; high-dose 10 mg/kg,24.88 ± 14.67
same,TNF-α in serum,[4]; high-dose 10 mg/kg,12.13 ± 17.06
same,efficacy on serum inflammatory factors compared with Simvastatin,[4]; high-dose group,considerable to that of Simvastatin
same,IL-8 in serum,[4]; low-dose 5 mg/kg,30.97 ± 13.70
same,TNF-α in serum,[4]; low-dose 5 mg/kg,12.92 ± 10.20
same,Epithelial cell necrosis Mild,[5]; 5 mg/kg,6
same,Epithelial cell necrosis Moderate,[5]; 5 mg/kg,4
same,Epithelial cell necrosis Severe,[5]; 5 mg/kg,0
same,Interstitial inflammatory cell infiltration Mild,[5]; 5 mg/kg,6
same,Interstitial inflammatory cell infiltration Moderate,[5]; 5 mg/kg,4
same,Interstitial inflammatory cell infiltration Severe,[5]; 5 mg/kg,0
same,Epithelial cell necrosis Mild,[5]; 10 mg/kg,7
same,Epithelial cell necrosis Moderate,[5]; 10 mg/kg,3
same,Epithelial cell necrosis Severe,[5]; 10 mg/kg,0
same,Interstitial inflammatory cell infiltration Mild,[5]; 10 mg/kg,7
same,Interstitial inflammatory cell infiltration Moderate,[5]; 10 mg/kg,3
same,Interstitial inflammatory cell infiltration Severe,[5]; 10 mg/kg,0
same,lung lesions,"[5]; 10 mg/kg and 5 mg/kg, compared with the model group",good improvement effects on lung lesions
same,effect on lung lesions compared with the Simvastatin group,[5]; high-dose group 10 mg/kg,considerable to the Simvastatin group
same,IL-4 in serum,[6]; [11],36.11 ± 10.98 pg/mL
same,INF-γ in serum,[6]; [11],102.48 ± 7.81
same,IL-4 in serum,[6]; [12],10.72 ± 16.74 pg/mL
same,INF-γ in serum,[6]; [12],95.34 ± 13.59
same,expression of IL-4,"[6]; mouse, in vivo",reduce the expression of IL-4
same,expression of INF-γ,"[6]; mouse, in vivo",increase the expression of INF-γ
